In publication PMC6337391 (Molecules, 2019):

Tests used:
[1] = test system: L929 mouse fibroblasts cells; experiment: Cytotoxicity, propidium iodide fluorescence method; assay type: cell-based; conditions: 24-h incubation
Outline: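 L929 cells in EMEM with 10% horse serum were allowed to attach for 24 h, then exposed to 1, 10, 20, 50 and 100 μM compound for 24 h at 37 °C. Cells were detached, stained with propidium iodide, and cell death was measured by flow cytometry.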

soybean lipoxygenase = target: T1, soybean lipoxygenase (Glycine max, UniProt P08170); experiment: biochemical; assay type: biochemical; conditions: soybean LOX
T1 sequence (P08170 1-839): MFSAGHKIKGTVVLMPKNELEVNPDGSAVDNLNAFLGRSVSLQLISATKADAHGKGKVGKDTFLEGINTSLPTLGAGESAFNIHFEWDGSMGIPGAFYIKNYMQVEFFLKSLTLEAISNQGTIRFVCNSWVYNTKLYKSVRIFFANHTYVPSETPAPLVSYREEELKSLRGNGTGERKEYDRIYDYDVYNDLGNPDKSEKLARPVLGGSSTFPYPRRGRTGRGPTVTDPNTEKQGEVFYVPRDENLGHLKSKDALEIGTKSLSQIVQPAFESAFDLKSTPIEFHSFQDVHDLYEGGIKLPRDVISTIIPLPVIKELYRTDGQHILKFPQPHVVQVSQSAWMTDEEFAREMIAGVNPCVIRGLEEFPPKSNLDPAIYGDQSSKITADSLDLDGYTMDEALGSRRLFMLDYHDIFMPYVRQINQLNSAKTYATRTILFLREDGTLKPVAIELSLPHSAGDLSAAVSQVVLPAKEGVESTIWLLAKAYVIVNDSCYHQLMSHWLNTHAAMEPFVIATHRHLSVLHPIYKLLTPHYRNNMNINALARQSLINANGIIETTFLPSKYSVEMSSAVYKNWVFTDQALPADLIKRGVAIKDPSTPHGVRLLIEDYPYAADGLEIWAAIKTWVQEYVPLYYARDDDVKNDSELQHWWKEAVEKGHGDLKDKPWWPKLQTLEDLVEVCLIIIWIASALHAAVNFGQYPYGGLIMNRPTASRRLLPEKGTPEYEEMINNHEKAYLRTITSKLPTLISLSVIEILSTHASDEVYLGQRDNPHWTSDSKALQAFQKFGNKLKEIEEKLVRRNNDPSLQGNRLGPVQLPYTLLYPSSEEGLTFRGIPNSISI
Outline: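 Soybean LOX (enzyme solution 1/9 × 10^−4 w/v in saline) incubated at room temperature with sodium linoleate ([…]) in tris buffer pH 9. Compounds added from DMSO stocks. IC50 derived from several concentrations.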

[2] = Reducing activity with the stable radical DPPH
Outline: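 DPPH (final 0.05 mM) in absolute ethanol mixed with an equal volume of compound at 0.05 or 0.1 mM, ethanol as control. Absorbance at 517 nm read at room temperature after 20 and 60 min, expressed as reducing activity RA%.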

[3] = ABTS•+ decolorization assay
Outline: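 Compounds (10 mM DMSO stocks, diluted) added to ABTS•+ radical generated by potassium persulfate oxidation of ABTS. Decolorization followed as absorbance at room temperature, with Trolox as standard.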

[4] = Inhibition of linoleic acid lipid peroxidation (AAPH)
Outline: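 Sodium linoleate oxidation was initiated by AAPH in 0.05 M phosphate buffer, pH 7.4, at 37 °C, with test compound present and DMSO as blank. Conjugated diene hydroperoxide formation was followed as the absorbance increase at 234 nm.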

[5] = target: acetyl-cholinesterase (AChE) (Electrophorus electricus, UniProt O42275); assay type: biochemical
Protocol: We investigated, in vitro, the inhibitory activity of a, b, c, and e derivatives on acetylcholinesterase activity using acetylthiocholine as a substrate [29].
A modified procedure which was followed in our previous publication was performed [29]. A stock solution (10 mM) of the compounds diluted in DMSO was used (final concentration 100 µM).

[6] = Lipophilicity as RM values by RP-TLC; assay type: physicochemical; parameters: key: RM = log[(1/Rf) − 1]; conditions: methanol/water 70/30, SD < 10%
Outline: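 Reversed-phase TLC on silica gel plates impregnated with 5% (v/v) liquid paraffin, methanol/water 70/30 (v/v) mobile phase, saturated tanks at 24 °C, UV detection. RM = log[(1/Rf) − 1] from five Rf measurements.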

Chain of acetyl-cholinesterase (AChE) (O42275 24-633): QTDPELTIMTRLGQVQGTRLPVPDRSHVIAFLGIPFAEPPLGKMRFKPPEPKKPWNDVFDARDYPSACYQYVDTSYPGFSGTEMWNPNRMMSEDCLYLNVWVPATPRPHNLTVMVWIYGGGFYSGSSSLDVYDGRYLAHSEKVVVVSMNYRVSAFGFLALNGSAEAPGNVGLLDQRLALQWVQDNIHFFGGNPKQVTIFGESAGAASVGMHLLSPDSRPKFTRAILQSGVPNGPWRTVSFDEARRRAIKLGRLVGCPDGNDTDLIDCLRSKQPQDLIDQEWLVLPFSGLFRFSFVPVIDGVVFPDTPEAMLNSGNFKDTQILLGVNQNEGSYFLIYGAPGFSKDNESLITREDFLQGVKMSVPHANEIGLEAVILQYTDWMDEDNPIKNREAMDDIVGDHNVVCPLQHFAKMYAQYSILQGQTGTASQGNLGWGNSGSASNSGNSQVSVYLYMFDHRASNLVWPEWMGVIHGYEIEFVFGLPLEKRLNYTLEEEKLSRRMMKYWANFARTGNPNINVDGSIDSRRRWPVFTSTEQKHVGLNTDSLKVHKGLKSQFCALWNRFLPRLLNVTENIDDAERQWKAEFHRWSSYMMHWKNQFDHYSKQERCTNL

| SMILES | 1 μM Average (% pi) ± σ [1] [%] | 10 μM Average (% pi) ± σ [1] [%] | 20 μM Average (% pi) ± σ [1] [%] | 50 μM Average (% pi) ± σ [1] [%] | 100 μM Average (% pi) ± σ [1] [%] | % LOX Inhb. @ 100 μM (soybean lipoxygenase) [%] | RA% 100 μM 20 min [2] | RA% 100 μM 60 min [2] | ABTS•+ Inhb. % @ 100 μM [3] | AAPH% @ 100 μM (anti-lipid peroxidation) [4] [%] | % AChE Inhb. @ 100 μM [5] | RM [6] | IC50 (soybean lipoxygenase; read-out: LOX IC50) [µM] |
| --- | --- | --- | --- | --- | --- | --- | --- | --- | --- | --- | --- | --- | --- |
| O=C(/C=C/C1=C2C=CC=CC2NC1)c1ccc(O)cc1 (stereo not shown) [a6, (E)-3-(2,7a-dihydro-1H-indol-3-yl)-1-(4-hydroxyphenyl) prop-2-en-1-one] | 1.71 ± 2.08 | 1.66 ± 0.59 | 3.25 ± 2.6 | 6.67 ± 1.35 | 6.67 ± 1.35 | 60 | 15% | 2% | No | 45 | Νο | −0.65 |  |
| O=C(/C=C/c1c[nH]c2ccccc12)c1ccc(OCCCOc2ccc(C(=O)/C=C/c3c[nH]c4ccccc34)cc2)cc1 [c6, (2E,2′E)-1,1′-((propane-1,3-diylbis(oxy))bis(4,1-phenylene))bis(3-(1H-indol-3-yl)prop-2-en-1-one)] | 1.12 ± 1.15 | 2.2 ± 1.66 | 1.16 ± 0.81 | 3.03 ± 0.02 | 3.03 ± 0.02 | 98 | No | No | No | 100 | did not present any activity and Νο | −0.97 | 54 |
